Results taken from PubChem BioAssay (NCI).
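GI50 is the concentration that inhibits growth by half. Definition used: TGI = concentration required for complete inhibition of growth.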

Tests used:
Experiment in all cases: growth of human tumour cells (NCI), 384-well format
T-47D breast = test system: T-47D breast
OVCAR-4 ovarian = test system: OVCAR-4 ovarian
MDA-MB-435 melanoma = test system: MDA-MB-435 melanoma
BT-549 breast = test system: BT-549 breast
CAKI-1 renal = test system: CAKI-1 renal
LOX IMVI melanoma = test system: LOX IMVI melanoma
HOP-92 NSCLC = test system: HOP-92 NSCLC
NCI/ADR-RES ovarian = test system: NCI/ADR-RES ovarian
SK-MEL-28 melanoma = test system: SK-MEL-28 melanoma
SW-620 colon = test system: SW-620 colon
HCT-116 colon = test system: HCT-116 colon
RPMI-8226 leukemia = test system: RPMI-8226 leukemia
PC-3 prostate = test system: PC-3 prostate
HCT-15 colon = test system: HCT-15 colon
SNB-75 CNS = test system: SNB-75 CNS
MALME-3M melanoma = test system: MALME-3M melanoma
SNB-19 CNS = test system: SNB-19 CNS
IGROV1 ovarian = test system: IGROV1 ovarian
SN12C renal = test system: SN12C renal
NCI-H23 lung = test system: NCI-H23 lung
HL-60(TB) leukemia = test system: HL-60(TB) leukemia
UACC-257 melanoma = test system: UACC-257 melanoma
A498 renal = test system: A498 renal
M14 melanoma = test system: M14 melanoma
ACHN renal = test system: ACHN renal
786-0 renal = test system: 786-0 renal
UO-31 renal = test system: UO-31 renal
K-562 leukemia = test system: K-562 leukemia
HOP-62 NSCLC = test system: HOP-62 NSCLC
TK-10 renal = test system: TK-10 renal
NCI-H522 lung = test system: NCI-H522 lung
NCI-H460 NSCLC = test system: NCI-H460 NSCLC
HCC-2998 colon = test system: HCC-2998 colon
RXF 393 renal = test system: RXF 393 renal
SF-539 CNS = test system: SF-539 CNS
SK-MEL-5 melanoma = test system: SK-MEL-5 melanoma
MOLT-4 leukemia = test system: MOLT-4 leukemia
U251 glioblastoma = test system: U251 glioblastoma
HT29 colon = test system: HT29 colon
A549 NSCLC = test system: A549 NSCLC
NCI-H322M lung = test system: NCI-H322M lung
NCI-H226 lung = test system: NCI-H226 lung
MCF7 breast = test system: MCF7 breast
MDA-MB-468 breast = test system: MDA-MB-468 breast
SK-OV-3 ovarian = test system: SK-OV-3 ovarian
MDA-MB-231 breast = test system: MDA-MB-231 breast
OVCAR-3 ovarian = test system: OVCAR-3 ovarian
KM12 colon = test system: KM12 colon
CCRF-CEM leukemia = test system: CCRF-CEM leukemia
OVCAR-8 ovarian = test system: OVCAR-8 ovarian
SF-295 CNS = test system: SF-295 CNS
UACC-62 melanoma = test system: UACC-62 melanoma
DU-145 prostate = test system: DU-145 prostate
SR leukemia = test system: SR leukemia
HS 578T breast = test system: HS 578T breast
COLO 205 colon = test system: COLO 205 colon
SF-268 CNS = test system: SF-268 CNS
EKVX NSCLC = test system: EKVX NSCLC

`CC(=O)N1c2ccc(-c3ccc(C(=O)O)cc3)cc2[C@H](Nc2ccc(Cl)cc2)C[C@@H]1C` showed a GI50 (T-47D breast) of 240 nM, a TGI (T-47D breast) of 12.4 µM and a GI50 (OVCAR-4 ovarian) of 104 nM. The TGI (OVCAR-4 ovarian) was 659 nM, the GI50 (MDA-MB-435 melanoma) was 669 nM and the TGI (MDA-MB-435 melanoma) was 42.6 µM. For the same compound, the GI50 (BT-549 breast) was 43 nM, the TGI (BT-549 breast) was 11.4 µM and the GI50 (CAKI-1 renal) was 31.3 nM. It also gave a TGI (CAKI-1 renal) of 2560 nM, a GI50 (LOX IMVI melanoma) of 48.1 nM and a TGI (LOX IMVI melanoma) of 209 nM. It also gave a GI50 (HOP-92 NSCLC) of 49.7 nM, a TGI (HOP-92 NSCLC) of 16.4 µM and a GI50 (NCI/ADR-RES ovarian) of 129 nM. For the same compound, the TGI (NCI/ADR-RES ovarian) was 3.3 µM, the GI50 (SK-MEL-28 melanoma) was 89.5 nM and the TGI (SK-MEL-28 melanoma) was 15 µM. For the same compound, the GI50 (SW-620 colon) was 2990 nM, the TGI (SW-620 colon) was 22 µM and the GI50 (HCT-116 colon) was 180 nM. The TGI (HCT-116 colon) was 12.8 µM, the GI50 (RPMI-8226 leukemia) was < 10 nM and the TGI (RPMI-8226 leukemia) was 108 nM. For the same compound, the GI50 (PC-3 prostate) was 369 nM, the TGI (PC-3 prostate) was 20.6 µM and the GI50 (HCT-15 colon) was 53.5 nM. The TGI (HCT-15 colon) was 10.3 µM, the GI50 (SNB-75 CNS) was 213 nM and the TGI (SNB-75 CNS) was 49.3 µM. For the same compound, the GI50 (MALME-3M melanoma) was 30.9 nM, the TGI (MALME-3M melanoma) was 1600 nM and the GI50 (SNB-19 CNS) was 166 nM. It also gave a TGI (SNB-19 CNS) of 27 µM, a GI50 (IGROV1 ovarian) of 75.6 nM and a TGI (IGROV1 ovarian) of 18.8 µM. For the same compound, the GI50 (SN12C renal) was 108 nM, the TGI (SN12C renal) was 20.9 µM and the GI50 (NCI-H23 lung) was 137 nM. The TGI (NCI-H23 lung) was 11.4 µM, the GI50 (HL-60(TB) leukemia) was < 10 nM and the TGI (HL-60(TB) leukemia) was 25.9 nM. It also gave a GI50 (UACC-257 melanoma) of 192 nM, a TGI (UACC-257 melanoma) of 53.6 µM and a GI50 (A498 renal) of 239 nM. For the same compound, the TGI (A498 renal) was 13.5 µM, the GI50 (M14 melanoma) was 144 nM and the TGI (M14 melanoma) was 15.5 µM. For the same compound, the GI50 (ACHN renal) was 558 nM, the TGI (ACHN renal) was 19.7 µM and the GI50 ([…]-0 renal) was 74.9 nM. It also gave a TGI (786-0 renal) of 24.2 µM, a GI50 (UO-31 renal) of 200 nM and a TGI (UO-31 renal) of 13 µM. It also gave a GI50 (K-562 leukemia) of 84.2 nM, a TGI (K-562 leukemia) of 16.8 µM and a GI50 (HOP-62 NSCLC) of 47.8 nM. For the same compound, the TGI (HOP-62 NSCLC) was 7.2 µM, the GI50 (TK-10 renal) was 48.6 nM and the TGI (TK-10 renal) was 2650 nM. The GI50 (NCI-H522 lung) was 24.3 nM, the TGI (NCI-H522 lung) was 1310 nM and the GI50 (NCI-H460 NSCLC) was 467 nM. The TGI (NCI-H460 NSCLC) was 15.4 µM, the GI50 (HCC-2998 colon) was 62.8 nM and the TGI (HCC-2998 colon) was 676 nM. It also gave a GI50 (RXF 393 renal) of 702 nM, a TGI (RXF 393 renal) of 20.8 µM and a GI50 (SF-539 CNS) of 314 nM. It also gave a TGI (SF-539 CNS) of 11.2 µM, a GI50 (SK-MEL-5 melanoma) of 208 nM and a TGI (SK-MEL-5 melanoma) of 13.1 µM. It also gave a GI50 (MOLT-4 leukemia) of 54.1 nM, a TGI (MOLT-4 leukemia) of 2060 nM and a GI50 (U251 glioblastoma) of 488 nM. For the same compound, the TGI (U251 glioblastoma) was 21.7 µM, the GI50 (HT29 colon) was 73.3 nM and the TGI (HT29 colon) was 15.7 µM. It also gave a GI50 (A549 NSCLC) of 456 nM, a TGI (A549 NSCLC) of 18.6 µM and a GI50 (NCI-H322M lung) of 201 nM. For the same compound, the TGI (NCI-H322M lung) was 13.3 µM, the GI50 (NCI-H226 lung) was 57.4 nM and the TGI (NCI-H226 lung) was 2510 nM. It also gave a GI50 (MCF7 breast) of 19.5 nM, a TGI (MCF7 breast) of 10.2 µM and a GI50 (MDA-MB-468 breast) of 171 nM. The TGI (MDA-MB-468 breast) was 10.5 µM, the GI50 (SK-OV-3 ovarian) was 101 nM and the TGI (SK-OV-3 ovarian) was 14.1 µM. The GI50 (MDA-MB-231 breast) was 61.8 nM, the TGI (MDA-MB-231 breast) was 75.2 µM and the GI50 (OVCAR-3 ovarian) was 57 nM. The TGI (OVCAR-3 ovarian) was 11.3 µM, the GI50 (KM12 colon) was 193 nM and the TGI (KM12 colon) was 15.5 µM. For the same compound, the GI50 (CCRF-CEM leukemia) was 60.5 nM, the TGI (CCRF-CEM leukemia) was 8.77 µM and the GI50 (OVCAR-8 ovarian) was 77 nM. It also gave a TGI (OVCAR-8 ovarian) of 3.1 µM, a GI50 (SF-295 CNS) of 975 nM and a TGI (SF-295 CNS) of 17.3 µM. The GI50 (UACC-62 melanoma) was 22.2 nM, the TGI (UACC-62 melanoma) was 2740 nM and the GI50 (DU-145 prostate) was 638 nM. For the same compound, the TGI (DU-145 prostate) was > 100 µM, the GI50 (SR leukemia) was < 10 nM and the TGI (SR leukemia) was 50.2 nM. For the same compound, the GI50 (HS 578T breast) was 20.7 nM, the TGI (HS 578T breast) was 185 nM and the GI50 (COLO 205 colon) was 146 nM. The TGI (COLO 205 colon) was 10.9 µM, the GI50 (SF-268 CNS) was 386 nM and the TGI (SF-268 CNS) was 19.5 µM. It also gave a GI50 (EKVX NSCLC) of 1390 nM and a TGI (EKVX NSCLC) of 46.4 µM.
